Test results taken from ChEMBL document CHEMBL4619795, “Establishing the Structure-Activity Relationship of Daptomycin” (ACS Med Chem Lett, 2020).

Experiments:
Type in all cases: functional
Enterococcus [1] = assay: Antibacterial activity against Enterococcus 60 assessed as bacterial growth inhibition in presence of 50 ug/ml calcium ions by CLSI protocol based broth microdilution method
Staphylococcus aureus [2] = assay: Antibacterial activity against methicillin-resistant Staphylococcus aureus 86 assessed as bacterial growth inhibition in presence of 50 ug/ml calcium ions by CLSI protocol based broth microdilution method
Staphylococcus aureus [3] = assay: Antibacterial activity against Staphylococcus aureus ATCC 29213 assessed as bacterial growth inhibition in presence of 50 ug/ml calcium ions by CLSI protocol based broth microdilution method
Enterococcus faecalis [4] = assay: Antibacterial activity against Streptococcus faecalis assessed as bacterial growth inhibition in presence of 50 ug/ml calcium ions by CLSI protocol based broth microdilution method
Staphylococcus aureus [5] = assay: Antibacterial activity against methicillin-resistant Staphylococcus aureus 14 assessed as bacterial growth inhibition in presence of 50 ug/ml calcium ions by CLSI protocol based broth microdilution method
Staphylococcus aureus [6] = assay: Antibacterial activity against methicillin-resistant Staphylococcus aureus 11 assessed as bacterial growth inhibition in presence of 50 ug/ml calcium ions by CLSI protocol based broth microdilution method
Enterococcus [7] = assay: Antibacterial activity against Enterococcus 6 assessed as bacterial growth inhibition in presence of 50 ug/ml calcium ions by CLSI protocol based broth microdilution method
Enterococcus faecalis [8] = assay: Antibacterial activity against Enterococcus faecalis ATCC 29212 assessed as bacterial growth inhibition in presence of 50 ug/ml calcium ions by CLSI protocol based broth microdilution method
Staphylococcus aureus [9] = assay: Antibacterial activity against methicillin-resistant Staphylococcus aureus 88 assessed as bacterial growth inhibition in presence of 50 ug/ml calcium ions by CLSI protocol based broth microdilution method

Row | SMILES | MIC (Enterococcus [1]) [µg/mL] | MIC (Staphylococcus aureus [2]) [µg/mL] | MIC (Staphylococcus aureus [3]) [µg/mL] | MIC (Enterococcus faecalis [4]) [µg/mL] | MIC (Staphylococcus aureus [5]) [µg/mL] | MIC (Staphylococcus aureus [6]) [µg/mL] | MIC (Enterococcus [7]) [µg/mL] | MIC (Enterococcus faecalis [8]) [µg/mL] | MIC (Staphylococcus aureus [9]) [µg/mL]
1 | C[C@H]1NC(=O)[C@H](CC(=O)O)NC(=O)[C@H](CCCN)NC(=O)CNC(=O)[C@@H](NC(=O)[C@H](CC(=O)O)NC(=O)[C@H](CC(N)=O)NC(=O)[C@H](Cc2c[nH]c3ccccc23)NC(=O)c2ccc(C#Cc3ccc(-c4ccccc4)cc3)cc2)[C@@H](C)OC(=O)[C@H](CC(=O)c2ccccc2N)NC(=O)[C@H]([C@@H](C)CC(=O)O)NC(=O)[C@@H](CO)NC(=O)CNC(=O)[C@H](CC(=O)O)NC1=O | 2 | 2 | 2 | 2 | 1 | 1 | 0.5 | 0.5 | 1
2 | CCCCCCCCCC(=O)N[C@@H](Cc1c[nH]c2ccccc12)C(=O)N[C@@H](CC(N)=O)C(=O)N[C@@H](CC(=O)O)C(=O)N[C@@H]1C(=O)NCC(=O)NCC(=O)N[C@@H](CC(=O)O)C(=O)N[C@H](C)C(=O)N[C@@H](CC(=O)O)C(=O)NCC(=O)N[C@H](CO)C(=O)N[C@@H]([C@@H](C)CC(=O)O)C(=O)N[C@@H](CC(=O)c2ccccc2N)C(=O)O[C@@H]1C | ≥ 32 | ≥ 32 | ≥ 32 | ≥ 32 | ≥ 32 | ≥ 32 | ≥ 32 | ≥ 32 | ≥ 32
3 | CCCCCCCCCC(=O)N[C@@H](Cc1c[nH]c2ccccc12)C(=O)N[C@@H](CC(N)=O)C(=O)N[C@@H](CC(=O)O)C(=O)N[C@@H]1C(=O)NCC(=O)N[C@@H](CCC(N)=O)C(=O)N[C@@H](CC(=O)O)C(=O)N[C@H](C)C(=O)N[C@@H](CC(=O)O)C(=O)NCC(=O)N[C@H](CO)C(=O)N[C@@H]([C@@H](C)CC(=O)O)C(=O)N[C@@H](CC(=O)c2ccccc2N)C(=O)O[C@@H]1C | ≥ 32 | 4 | 4 | ≥ 32 | ≥ 32 | ≥ 32 | ≥ 32 | ≥ 32 | 4
4 | CCCCCCCCCC(=O)N[C@@H](Cc1c[nH]c2ccccc12)C(=O)N[C@@H](CC(N)=O)C(=O)N[C@@H](CC(=O)O)C(=O)N[C@@H]1C(=O)NCC(=O)N[C@@H](CCCN)C(=O)N[C@@H](CC(=O)O)C(=O)N[C@H](C)C(=O)N[C@@H](CC(=O)O)C(=O)N(C)CC(=O)N[C@H](CO)C(=O)N[C@@H]([C@@H](C)CC(=O)O)C(=O)N[C@@H](CC(=O)c2ccccc2N)C(=O)O[C@@H]1C | ≥ 32 | ≥ 32 | ≥ 32 | ≥ 32 | ≥ 32 | ≥ 32 | ≥ 32 | ≥ 32 | ≥ 32
5 | CCCCCCCCCC(=O)N[C@@H](Cc1c[nH]c2ccccc12)C(=O)N[C@@H](CC(N)=O)C(=O)N[C@@H](CC(=O)O)C(=O)N[C@@H]1C(=O)NCC(=O)N[C@@H](CCCN)C(=O)N[C@@H](CC(=O)O)C(=O)N[C@H](C)C(=O)N[C@@H](CC(N)=O)C(=O)NCC(=O)N[C@H](CO)C(=O)N[C@@H]([C@@H](C)CC(=O)O)C(=O)N[C@@H](CC(=O)c2ccccc2N)C(=O)O[C@@H]1C | ≥ 32 | 32 | 16 | ≥ 32 | ≥ 32 | ≥ 32 | ≥ 32 | ≥ 32 | 16
6 | CCCCCCCCCC(=O)N[C@@H](Cc1c[nH]c2ccccc12)C(=O)N[C@@H](CC(N)=O)C(=O)N[C@@H](CC(=O)O)C(=O)N[C@@H]1C(=O)NCC(=O)N[C@@H](CCCN)C(=O)N[C@@H](CC(=O)O)C(=O)N[C@H](C)C(=O)N[C@@H](C)C(=O)NCC(=O)N[C@H](CO)C(=O)N[C@@H]([C@@H](C)CC(=O)O)C(=O)N[C@@H](CC(=O)c2ccccc2N)C(=O)O[C@@H]1C | ≥ 64 | ≥ 64 | ≥ 64 | ≥ 64 | ≥ 64 | ≥ 64 | ≥ 64 | ≥ 64 | ≥ 64
7 | CCCCCCCCCC(=O)N[C@@H](Cc1c[nH]c2ccccc12)C(=O)N[C@@H](CC(N)=O)C(=O)N[C@@H](CC(=O)O)C(=O)N[C@@H]1C(=O)NCC(=O)N[C@@H](C)C(=O)N[C@@H](CC(=O)O)C(=O)N[C@H](C)C(=O)N[C@@H](CC(=O)O)C(=O)NCC(=O)N[C@H](CO)C(=O)N[C@@H]([C@@H](C)CC(=O)O)C(=O)N[C@@H](CC(=O)c2ccccc2N)C(=O)O[C@@H]1C | 1 | 0.5 | 0.5 | 4 | 0.25 | 0.5 | 2 | 4 | 1
8 | CCCCCCCCCC(=O)N[C@@H](Cc1c[nH]c2ccccc12)C(=O)N[C@@H](CC(N)=O)C(=O)N[C@@H](CC(=O)O)C(=O)N[C@@H]1C(=O)NCC(=O)N[C@@H](CSSC[C@@H]2NC(=O)CNC(=O)[C@@H](NC(=O)[C@H](CC(=O)O)NC(=O)[C@H](CC(N)=O)NC(=O)[C@H](Cc3c[nH]c4ccccc34)NC(=O)CCCCCCCCC)[C@@H](C)OC(=O)[C@H](CC(=O)c3ccccc3N)NC(=O)[C@H]([C@@H](C)CC(=O)O)NC(=O)[C@@H](CO)NC(=O)CNC(=O)[C@H](CC(=O)O)NC(=O)[C@@H](C)NC(=O)[C@H](CC(=O)O)NC2=O)C(=O)N[C@@H](CC(=O)O)C(=O)N[C@H](C)C(=O)N[C@@H](CC(=O)O)C(=O)NCC(=O)N[C@H](CO)C(=O)N[C@@H]([C@@H](C)CC(=O)O)C(=O)N[C@@H](CC(=O)c2ccccc2N)C(=O)O[C@@H]1C | 16 | 8 | 16 | 4 | 4 | 8 | 16 | 16 | 16
9 | CCCCCCCCCC(=O)N[C@@H](Cc1c[nH]c2ccccc12)C(=O)N[C@@H](CC(N)=O)C(=O)N[C@@H](CC(=O)O)C(=O)N[C@@H]1C(=O)NCC(=O)N[C@@H](CCCN)C(=O)N[C@@H](CC(=O)O)C(=O)N[C@H](C)C(=O)N[C@@H](CC(=O)O)C(=O)NCC(=O)N[C@H](CO)C(=O)N[C@@H]([C@@H](C)CC(=O)O)C(=O)N[C@@H](C)C(=O)O[C@@H]1C | ≥ 32 | ≥ 32 | ≥ 32 | ≥ 32 | ≥ 32 | ≥ 32 | ≥ 32 | ≥ 32 | ≥ 32
10 | CCCCCCCCCC(=O)N[C@@H](Cc1c[nH]c2ccccc12)C(=O)N[C@@H](CC(N)=O)C(=O)N[C@@H](CC(=O)O)C(=O)N[C@@H]1C(=O)NCC(=O)N[C@@H]([C@@H](C)CC)C(=O)N[C@@H](CC(=O)O)C(=O)N[C@H](C)C(=O)N[C@@H](CC(=O)O)C(=O)NCC(=O)N[C@H](CO)C(=O)N[C@@H]([C@@H](C)CC(=O)O)C(=O)N[C@@H](CC(=O)c2ccccc2N)C(=O)O[C@@H]1C | 32 | 8 | 8 | ≥ 64 | ≥ 32 | ≥ 32 | ≥ 64 | ≥ 64 | 4
11 | CCCCCCCCCC(=O)N[C@@H](Cc1c[nH]c2ccccc12)C(=O)N[C@@H](CC(N)=O)C(=O)N[C@@H](CC(=O)O)C(=O)N[C@@H]1C(=O)NCC(=O)N2CCC[C@H]2C(=O)N[C@@H](CC(=O)O)C(=O)N[C@H](C)C(=O)N[C@@H](CC(=O)O)C(=O)NCC(=O)N[C@H](CO)C(=O)N[C@@H]([C@@H](C)CC(=O)O)C(=O)N[C@@H](CC(=O)c2ccccc2N)C(=O)O[C@@H]1C | ≥ 32 | ≥ 32 | ≥ 32 | ≥ 32 | ≥ 32 | ≥ 32 | ≥ 32 | ≥ 32 | ≥ 32
12 | C#Cc1ccc(C(=O)N[C@@H](Cc2c[nH]c3ccccc23)C(=O)N[C@@H](CC(N)=O)C(=O)N[C@@H](CC(=O)O)C(=O)N[C@@H]2C(=O)NCC(=O)N[C@@H](CCCN)C(=O)N[C@@H](CC(=O)O)C(=O)N[C@H](C)C(=O)N[C@@H](CC(=O)O)C(=O)NCC(=O)N[C@H](CO)C(=O)N[C@@H]([C@@H](C)CC(=O)O)C(=O)N[C@@H](CC(=O)c3ccccc3N)C(=O)O[C@@H]2C)cc1 | ≥ 32 | ≥ 32 | ≥ 32 | ≥ 32 | ≥ 32 | ≥ 32 | ≥ 32 | ≥ 32 | ≥ 32
13 | CCCCCCCCCC(=O)N[C@@H](Cc1c[nH]c2ccccc12)C(=O)N[C@@H](CC(N)=O)C(=O)N[C@@H](CC(=O)O)C(=O)N[C@@H]1C(=O)NCC(=O)N[C@@H](CCCN)C(=O)N[C@@H](CC(=O)O)C(=O)N[C@@H](C)C(=O)N[C@@H](CC(=O)O)C(=O)NCC(=O)N[C@H](CO)C(=O)N[C@@H]([C@@H](C)CC(=O)O)C(=O)N[C@@H](CC(=O)c2ccccc2N)C(=O)O[C@@H]1C | ≥ 64 | ≥ 64 | ≥ 64 | ≥ 64 | ≥ 64 | ≥ 64 | ≥ 64 | ≥ 64 | ≥ 64
14 | CCCCCCCCCC(=O)N[C@@H](Cc1c[nH]c2ccccc12)C(=O)N[C@@H](CC(N)=O)C(=O)N[C@@H](CC(=O)O)C(=O)N[C@@H]1C(=O)NCC(=O)N[C@@H](CCSC)C(=O)N[C@@H](CC(=O)O)C(=O)N[C@H](C)C(=O)N[C@@H](CC(=O)O)C(=O)NCC(=O)N[C@H](CO)C(=O)N[C@@H]([C@@H](C)CC(=O)O)C(=O)N[C@@H](CC(=O)c2ccccc2N)C(=O)O[C@@H]1C | 32 | ≥ 32 | ≥ 32 | ≥ 32 | ≥ 32 | ≥ 32 | ≥ 32 | ≥ 32 | ≥ 32
